20 compounds from patent US20240059698A1 (Accutar Biotechnology Inc., priority 2022, published 2024) can be followed below.

The test system of assay [1] is HCC827-YVMA cells (human ERBB2 exon20 insertion mutant A775_G776ins YVMA). The assay can be described thus: Cell growth inhibition (CellTiter-Glo), HCC827-YVMA. Particulars: 72 h, HCC827-YVMA cells, 3 days, CellTiter-Glo, read-out: Cell growth inhibition, GI50 (nM) HCC827-YVMA. The format is cell-based. The method, then:
(§1) Generation of HCC827-SVD, HCC827-ASV, and HCC827-YVMA cell lines. The HCC827-SVD cell line was generated by first transducing HCC827 cells (ATCC) with lentiviral particles expressing codon-optimized human EGFR exon 20 insertion mutant D770_N771insSVD, and then selecting under 5 µg/mL puromycin treatment for a week. The resulting cells were further transduced with lentiviral particles carrying EGFR sgRNA and CAS9 to knockout the endogenous alleles of EGER and then selected under 500 µg/mL hygromycin B treatment for two weeks. The limiting dilution approach was used to subsequently generate the single clone of the HCC827-SVD stable cell line. Endogenous EGFR knockout was confirmed by Sanger sequencing of cell genomic DNA, and expression of exogenous mutant EGFR was verified by Western blot analysis.
HCC827-ASV and HCC827-YVMA cell lines were generated in a similar approach as HCC827-SVD, except that HCC827 cells (ATCC) were first transduced with lentiviral particles expressing codon-optimized human EGFR exon 20 insertion mutant V769_D770insASV and human ERBB2 exon20 insertion mutant A775_G776ins YVMA, respectively.
(§2) 2. Cell Growth Inhibition for HCC827, HCC827-SVD, HCC827-ASV, HCC827-YVMA, and A431.
(§3) HCC827(ATCC), HCC827-SVD, HCC827-ASV, and HCC827-YVMA cells were seeded in 96-well plates at 5000 cells/well in 90 μL of RPMI growth medium containing 10% FBS and 1% Penicillin Streptomycin. A431 (ATCC) cells were seeded in 96-well plates at 5000 cells/well in 90 μL of DMEM growth medium containing 10% FBS and 1% Penicillin Streptomycin. Cells were incubated at 37° C. overnight and then administered with 10 μL 10× test compounds prepared in the growth medium at various concentrations. After administration of the compounds, cells were incubated at 37° C. for 3 days. Before the CellTiter-Glo assay, the plates were equilibrated at room temperature for approximately 30 minutes. 100 ul of CellTiter-Glo reagent (Promega) was added to each well. The plates were then incubated at room temperature for 10 minutes and luminescence was recorded by the EnSight® multimode plate reader (PerkinElmer). Table 7 listed selected compounds in cellular growth assay.
(Cellular ATP, detected with luciferase, serves as a proxy for viable cell number.)

Assay [2] relates to HCC827-SVD cells (human EGFR exon 20 insertion mutant D770_N771insSVD). The assay can be described thus: Cell growth inhibition (CellTiter-Glo), HCC827-SVD. Format: cell-based. Particulars: 72 h, 3 days. The method, then: as §1, §2, §3

For `C=CC(=O)N1CCC(c2c[nH]c3ncnc(Nc4ccc(OCc5cccc(C6CC6)n5)c(Cl)c4)c23)CC1` [Compound 88, 1-(4-(4-((3-chloro-4-((6-cyclopropylpyridin-2-yl)methoxy)phenyl)amino)-7H-pyrrolo[2,3-d]pyrimidin-5-yl)piperidin-1-yl)prop-2-en-1-one], the concentration for 50% growth inhibition (GI50) in assay [1] and in assay [2] was 50 to 200 nM each time.

In the case of `C=CC(=O)N1CCC(c2c[nH]c3ncnc(Nc4ccc(Oc5ccnc(N6CC(O)(C(C)C)C6)c5)cc4F)c23)CC1` [Compound 130, 1-[4-[4-[2-fluoro-4-[[2-(3-hydroxy-3-isopropyl-azetidin-1-yl)-4-pyridyl]oxy]anilino]-7H-pyrrolo[2,3-d]pyrimidin-5-yl]-1-piperidyl]prop-2-en-1-one], the GI50 in assay [1] and in assay [2] was 50 to 200 nM each time.

In the case of `C=CC(=O)N1CCC(c2c[nH]c3ncnc(Nc4ccc(Oc5ccnc(Nc6ncc[nH]6)c5)cc4F)c23)CC1` [Compound 59, 1-(4-(4-((4-((2-((1H-imidazol-2-yl)amino)pyridin-4-yl)oxy)-2-fluorophenyl)amino)-7H-pyrrolo[2,3-d]pyrimidin-5-yl)piperidin-1-yl)prop-2-en-1-one], the GI50 in assay [1] was 50 to 200 nM; in assay [2], greater than 1000 nM.

Turning to `C=CC(=O)N1CCC(c2n[nH]c3ncnc(Nc4ccc(Oc5ccnc(NC(=O)C(C)(C)C)c5)cc4F)c23)CC1` [Compound 192, N-(4-(4-((3-(1-acryloylpiperidin-4-yl)-1H-pyrazolo[3,4-d]pyrimidin-4-yl)amino)-3-fluorophenoxy)pyridin-2-yl)pivalamide], the GI50 in assay [1] and in assay [2] was 50 to 200 nM throughout.

For the compound `C=CC(=O)N1CCC(c2c[nH]c3ncnc(Nc4ccc(Oc5ccnc(NCC(F)(F)F)c5)cc4F)c23)CC1` [Compound 58, 1-(4-(4-((2-fluoro-4-((2-((2,2,2-trifluoroethyl)amino)pyridin-4-yl)oxy)phenyl)amino)-7H-pyrrolo[2,3-d]pyrimidin-5-yl)piperidin-1-yl)prop-2-en-1-one], the GI50 in assay [1] fell in the range of 50 to 200 nM; in assay [2] it was 200 to 1000 nM.

With `C=CC(=O)N1CCC(c2c[nH]c3ncnc(Nc4ccc(Oc5ccn(-c6ccc7cc[nH]c7n6)n5)cc4F)c23)CC1` [Compound 41, 1-(4-(4-((4-((1-(1H-pyrrolo[2,3-b]pyridin-6-yl)-1H-pyrazol-3-yl)oxy)-2-fluorophenyl)amino)-7H-pyrrolo[2,3-d]pyrimidin-5-yl)piperidin-1-yl)prop-2-en-1-one], the GI50 was in the range of 200 to 1000 nM in assay [1] and 50 to 200 nM in assay [2].

With `C=CC(=O)N1CCC(c2c[nH]c3ncnc(Nc4ccc(OCc5cnc(Cn6cncn6)nc5)c(Cl)c4)c23)CC1` [Compound 47, 1-(4-(4-((4-((2-((1H-1,2,4-triazol-1-yl)methyl)pyrimidin-5-yl)methoxy)-3-chlorophenyl)amino)-7H-pyrrolo[2,3-d]pyrimidin-5-yl)piperidin-1-yl)prop-2-en-1-one], the 50% growth inhibitory concentration (GI50) in assay [1] was 50 to 200 nM; in assay [2], less than 50 nM.

`C=CC(=O)N1CCC(c2c[nH]c3ncnc(Nc4ccc(OCc5ccnc(NC6CCC6)c5)cc4F)c23)CC1` [Compound 84, 1-(4-(4-((4-((2-(cycloButylamino)pyridin-4-yl)methoxy)-2-fluorophenyl)amino)-7H-pyrrolo[2,3-d]pyrimidin-5-yl)piperidin-1-yl)prop-2-en-1-one]: the 50% growth inhibitory concentration (GI50) in assay [1] is 50 to 200 nM; in assay [2] it was less than 50 nM.

Regarding `C=CC(=O)N1CCC(c2c[nH]c3ncnc(Nc4ccc(OCc5ccnn5CC)c(Cl)c4)c23)CC1` [Compound 81, 1-(4-(4-((3-chloro-4-((1-ethyl-1H-pyrazol-5-yl)methoxy)phenyl)amino)-7H-pyrrolo[2,3-d]pyrimidin-5-yl)piperidin-1-yl)prop-2-en-1-one], the concentration for 50% growth inhibition (GI50) in assay [1] and in assay [2] was 50 to 200 nM throughout.

With `C=CC(=O)N1CCC(c2c[nH]c3ncnc(Nc4ccc(Oc5ccnc(N6CCC(C(F)(F)F)C6)c5)c(Cl)c4)c23)CC1` (stereo not drawn) [Compound 43, 1-[4-[4-[3-chloro-4-[[2-[3-(trifluoromethyl)pyrrolidin-1-yl]-4-pyridyl]oxy]anilino]-7H-pyrrolo[2,3-d]pyrimidin-5-yl]-1-piperidyl]prop-2-en-1-one], the GI50 in assay [1] and in assay [2] was 50 to 200 nM each time.

For the compound `C=CC(=O)N1CCC(c2c[nH]c3ncnc(Nc4ccc(OCc5nnc[nH]5)c(Cl)c4)c23)CC1` [Compound 67, 1-(4-(4-((4-((4H-1,2,4-triazol-3-yl)methoxy)-3-chlorophenyl)amino)-7H-pyrrolo[2,3-d]pyrimidin-5-yl)piperidin-1-yl)prop-2-en-1-one], the GI50 in assay [1] and in assay [2] was 200 to 1000 nM in each case.

With `C=CC(=O)N1CCC(c2csc3ncnc(Nc4ccc(Oc5ccnc(NC(=O)C6CCCC6)c5)cc4F)c23)CC1` [Compound 161, N-(4-(4-((5-(1-acryloylpiperidin-4-yl)thieno[2,3-d]pyrimidin-4-yl)amino)-3-fluorophenoxy)pyridin-2-yl)cyclopentanecarboxamide], the concentration for 50% growth inhibition (GI50) in assay [1] fell in the range of 50 to 200 nM; in assay [2], 200 to 1000 nM.

For `C=CC(=O)N1CCC(c2c[nH]c3ncnc(Nc4ccc(CN(C)c5cnccn5)c(Cl)c4)c23)CC1` [Compound 54, 1-(4-(4-((3-chloro-4-((methyl(pyrazin-2-yl)amino)methyl)phenyl)amino)-7H-pyrrolo[2,3-d]pyrimidin-5-yl)piperidin-1-yl)prop-2-en-1-one], the GI50 in assay [1] and in assay [2] was less than 50 nM in each case.

Consider `C=CC(=O)N1CCC(c2c[nH]c3ncnc(Nc4ccc(OCc5ccc6cc[nH]c6n5)c(Cl)c4)c23)CC1` [Compound 73, 1-(4-(4-((4-((1H-pyrrolo[2,3-b]pyridin-6-yl)methoxy)-3-chlorophenyl)amino)-7H-pyrrolo[2,3-d]pyrimidin-5-yl)piperidin-1-yl)prop-2-en-1-one], for which the GI50 in assay [1] and in assay [2] was less than 50 nM each time.

Consider `C=CC(=O)N1CCC(c2c[nH]c3ncnc(Nc4ccc(Oc5ccnc(NC(=O)C(C)(C)C)c5)cc4F)c23)CC1` [Compound 91, N-(4-(4-((5-(1-acryloylpiperidin-4-yl)-7H-pyrrolo[2,3-d]pyrimidin-4-yl)amino)-3-fluorophenoxy)pyridin-2-yl)pivalamide], for which the GI50 is less than 50 nM in assay [1] and 200 to 1000 nM in assay [2].

Regarding `C=CC(=O)N1CCC(c2c[nH]c3ncnc(Nc4ccc(Oc5cccc(C(F)(F)F)c5)c(Cl)c4)c23)CC1` [Compound 225, 1-[4-[4-[3-chloro-4-[3-(trifluoromethyl)phenoxy]anilino]-7H-pyrrolo[2,3-d]pyrimidin-5-yl]-1-piperidyl]prop-2-en-1-one], the GI50 in assay [1] is less than 50 nM.

`C=CC(=O)N1CCC(c2n[nH]c3ncnc(Nc4ccc(Oc5ccnc(NC(=O)c6cnn(C)c6)c5)cc4F)c23)CC1` [Compound 196, N-(4-(4-((3-(1-acryloylpiperidin-4-yl)-1H-pyrazolo[3,4-d]pyrimidin-4-yl)amino)-3-fluorophenoxy)pyridin-2-yl)-1-methyl-1H-pyrazole-4-carboxamide]: the GI50 in assay [1] and in assay [2] was 200 to 1000 nM in each case.

`C=CC(=O)N1CCC(c2c[nH]c3ncnc(Nc4ccc(Oc5ccnc(-c6ccn(C)n6)c5)c(Cl)c4)c23)CC1` [Compound 48, 1-(4-(4-((3-chloro-4-((2-(1-methyl-1H-pyrazol-3-yl)pyridin-4-yl)oxy)phenyl)amino)-7H-pyrrolo[2,3-d]pyrimidin-5-yl)piperidin-1-yl)prop-2-en-1-one]: the concentration for 50% growth inhibition (GI50) in assay [1] and in assay [2] was 50 to 200 nM in each case.

As for `C=CC(=O)N1CCC(c2c[nH]c3ncnc(Nc4ccc(Oc5ccnc(Nc6ccccn6)c5)c(Cl)c4F)c23)CC1` [Compound 40, 1-(4-(4-((3-chloro-2-fluoro-4-((2-(pyridin-2-ylamino)pyridin-4-yl)oxy)phenyl)amino)-7H-pyrrolo[2,3-d]pyrimidin-5-yl)piperidin-1-yl)prop-2-en-1-one], the GI50 in assay [1] and in assay [2] was less than 50 nM throughout.

Turning to `C=CC(=O)N1CCC(c2n[nH]c3ncnc(Nc4ccc(Oc5cccc(S(=O)(=O)NC6CC(F)(F)C6)c5)cc4F)c23)CC1` [Compound 185, 3-(4-((3-(1-acryloylpiperidin-4-yl)-1H-pyrazolo[3,4-d]pyrimidin-4-yl)amino)-3-fluorophenoxy)-N-(3,3-difluorocycloButyl)benzenesulfonamide], the concentration for 50% growth inhibition (GI50) in assay [1] and in assay [2] was 50 to 200 nM throughout.

As a reminder, the GI50 is the concentration giving 50% growth inhibition.
